Results reported in ChEMBL document CHEMBL1132145, “Effects of C-4 stereochemistry and C-4' hydroxylation on the iron clearing efficiency and toxicity of desferrithiocin analogues” (1999).

Columns and labels:
Type in all cases: functional
[1] = tested on: Monkey; test: The compound was tested in vivo for the iron clearing activity against non -iron-overloaded Cebus apella monkey at a concentration of 150 uM/Kg.
[2] = tested on: Rattus norvegicus; test: The compound was tested in vivo for the iron clearing activity against non-iron-overloaded-bile duct cannulated rat, at a concentration of 150 uM/Kg(po)
[3] = tested on: Monkey; test: The compound was tested in vivo for the iron clearing activity against non -iron-overloaded Cebus apella monkey at a concentration of 150 uM/Kg
[4] = tested on: Monkey; test: The compound was tested in vivo for the iron clearing activity against non -iron-overloaded Cebus apella monkey at a concentration of 150 uM/Kg, with distilled water
[5] = tested on: Monkey; test: The compound was tested in vivo for the iron clearing activity against non -iron-overloaded Cebus apella monkey at a concentration of 300 uM/Kg
[6] = tested on: Monkey; test: The compound was tested in vivo for the iron clearing activity against non -iron-overloaded Cebus apella monkey at a concentration of 300 uM/Kg with distilled water
[7] = tested on: Rattus norvegicus; test: The compound was tested in vivo for the iron clearing activity against non-iron-overloaded-bile duct cannulated rat, at a concentration of 150 uM/Kg
[8] = tested on: Monkey; test: The compound was tested in vivo for the iron clearing activity against non -iron-overloaded Cebus apella monkey at a concentration of 75 uM/Kg
[9] = tested on: Monkey; test: The compound was tested in vivo for the iron clearing activity against non -iron-overloaded Cebus apella monkey at a concentration of 300 uM/Kg.
[10] = tested on: Monkey; test: The compound was tested in vivo for the iron clearing activity against non-iron-overloaded Cebus apella monkey, values in parentheses indicate the % breakdown of iron excreted in stool and urine, at a concentration of 75 uM/Kg.
[11] = tested on: Monkey; test: The compound was tested in vivo for the iron clearing activity against non-iron-overloaded Cebus apella monkey, values in parentheses indicate the % breakdown of iron excreted in stool and urine, at a concentration of 300 uM/Kg.

Work on `O=C(O)[C@@H]1CSC(c2ccc(O)cc2O)=N1` yielded an Efficiency [1] of 1.7% and an Efficiency [2] of less than 0.5%.

Compound `O=C(O)[C@H]1CSC(c2ccc(O)cc2O)=N1` has an Efficiency [3] of 4.2%, an Efficiency [4] of 5.6% and an Efficiency [5] of 5.6%. The Efficiency [6] was 4.8% and the Efficiency [7] was 2.4%.

`C[C@]1(C(=O)O)CSC(c2ccc(O)cc2O)=N1` [DEFERITRIN] showed an Efficiency [1] of 13.4%, an Efficiency [8] of 17.7% and an Efficiency [7] of less than 0.5%.

In the case of `O=C(O)[C@H]1CSC(c2ncccc2O)=N1`, the Efficiency [3] is reported as 4.8%, the Efficiency [7] is reported as 2.4% and the Efficiency [9] is reported as 8%.

Work on `O=C(O)[C@H]1CSC(c2ccccc2O)=N1` yielded an Efficiency [7] of 1.4% and an Efficiency [9] of 12.4%.

In the case of `C[C@]1(C(=O)O)CSC(c2ccccc2O)=N1`, the Efficiency [10] is reported as 21.5%, the Efficiency [7] is reported as 2.7% and the Efficiency [9] is reported as 13.1%.

`C[C@]1(C(=O)O)CSC(c2ncccc2O)=N1` [DESFERRITHIOCIN] was tested, and the Efficiency [3] was 16.1% and the Efficiency [7] was 5.5%.

In the case of `O=C(O)[C@@H]1CSC(c2ncccc2O)=N1`, the Efficiency [3] is reported as 0.5% and the Efficiency [7] is reported as 3.9%.

With `O=C(O)[C@@H]1CSC(c2ccccc2O)=N1` the Efficiency [11] was 8.2% and the Efficiency [7] was 4.2%.
